The values that follow come from paper PMC7345279 (Antibiotics, 2020).

One may read the fraction unbound as the share of the substance not bound to proteins or other matrix. Low values mean extensive binding, high ones weak binding.

“And” between values parts separate entries of the source, which are not always exact repeats. Equal entries are not always repeated. Where two headings read alike, the source gives them in different places.

Data set [1] relates to plasma proteins. Particulars: cited from earlier work.
The target of data set [2] is HSA (Homo sapiens, UniProt P02768). The data set can be described thus: Binding of FLU to HSA solutions (40 and 25 g/L), alone and with anticancer agents (ultrafiltration, LC-MS/MS). Particulars: for % Unb / Total conc / Unb Conc: alone.
Data set [3] relates to α-1-acid glycoprotein (AGP). The data set can be described thus: Binding of FLU to AGP solutions (0.9 and […]), alone and with IMA (ultrafiltration, LC-MS/MS). The following applies: for % Unb / Total conc / Unb Conc: alone.
The nature of data set [4]: Unbound fraction / protein binding of FLU in pooled plasma, alone and with a second drug (ultrafiltration, LC-MS/MS). Particulars: human, plasma.
Data set [5] concerns human plasma proteins. Described as above. The following applies: for FLU bound %: Pooled Plasma; for %Unbound / Measured Unbound Conc in Plasma / Measured Total Conc in Plasma: pooled plasma, alone, listed as FLU alone.

Chain of HSA (P02768 25-609): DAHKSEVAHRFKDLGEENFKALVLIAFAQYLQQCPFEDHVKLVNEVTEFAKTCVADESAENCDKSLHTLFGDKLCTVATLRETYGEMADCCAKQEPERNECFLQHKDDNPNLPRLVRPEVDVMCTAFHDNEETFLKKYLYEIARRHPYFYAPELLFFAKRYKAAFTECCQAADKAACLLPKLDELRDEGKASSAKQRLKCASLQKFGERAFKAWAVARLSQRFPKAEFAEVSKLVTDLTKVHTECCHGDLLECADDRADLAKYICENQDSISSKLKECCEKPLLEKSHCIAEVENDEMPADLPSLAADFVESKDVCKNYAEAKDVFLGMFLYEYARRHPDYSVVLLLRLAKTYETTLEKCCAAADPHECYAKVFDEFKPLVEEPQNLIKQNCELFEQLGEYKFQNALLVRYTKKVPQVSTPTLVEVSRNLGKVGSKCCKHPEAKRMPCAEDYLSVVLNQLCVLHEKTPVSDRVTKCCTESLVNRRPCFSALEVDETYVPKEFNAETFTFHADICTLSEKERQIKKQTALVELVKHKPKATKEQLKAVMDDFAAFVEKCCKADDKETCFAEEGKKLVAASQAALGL

`Cc1ccc(NC(=O)c2ccc(CN3CCN(C)CC3)cc2)cc1Nc1nccc(-c2cccnc2)n1` [IMA, imatinib]: the “bound to human plasma proteins” value in data set [1] (ref 54) is recorded as 95%.
Turning to `Cc1onc(-c2c(F)cccc2Cl)c1C(=O)N[C@@H]1C(=O)N2[C@@H]1SC(C)(C)[C@@H]2C(=O)O` [FLU, Flucloxacillin], the FLU bound % amounted to 94.91% in data set [2] (Albumin (25 g/l), FLU 0.2 µg/mL); 93.49% in data set [2] (Albumin (25 g/l), FLU 20 µg/mL); 94.39% in data set [2] (Albumin (40 g/l), FLU 0.2 µg/mL); 93.98% in data set [2] (Albumin (40 g/l), FLU 20 µg/mL); 60.92% in data set [3] (AGPs (0.9 g/l), FLU 0.2 µg/mL); 67.96% in data set [3] (AGPs ([…]), FLU 0.2 µg/mL). Besides, the FLU bound % was 79.38% in data set [3] (AGPs ([…]), FLU 20 µg/mL); 99.11% in data set [5] (FLU 0.2 µg/mL); 98.85% in data set [5] (FLU 20 µg/mL). Moreover, the “% Unb” value in data set [2] (HSA 25 g/L, FLU 0.2 µg/mL) came to 5.09%; in data set [2] (HSA 25 g/L, FLU 20 µg/mL) it was 6.51%; in data set [2] (HSA 40 g/L, FLU 0.2 µg/mL), 5.61%; in data set [2] (HSA 40 g/L, FLU 20 µg/mL) it was 6.02%; in data set [3] (AGP 0.9 g/L, FLU 0.2 µg/mL), 39.08%; in data set [3] (AGP 0.9 g/L, FLU 20 µg/mL), 22.11%. In addition, the “% Unb” value is 32.04% in data set [3] (AGP […], FLU 0.2 µg/mL) and 20.62% in data set [3] (AGP […], FLU 20 µg/mL). The “Total conc” value in data set [2] (HSA 25 g/L, FLU 0.2 µg/mL) stood at 0.232 µg/mL; in data set [2] (HSA 25 g/L, FLU 20 µg/mL), 18.214 µg/mL; in data set [2] (HSA 40 g/L, FLU 0.2 µg/mL), 0.197 µg/mL; in data set [2] (HSA 40 g/L, FLU 20 µg/mL), 16.04 µg/mL; in data set [3] (AGP 0.9 g/L, FLU 0.2 µg/mL) it was 0.261 µg/mL; in data set [3] (AGP 0.9 g/L, FLU 20 µg/mL) it was 21.060 µg/mL. Besides, the Total conc in data set [3] (AGP […], FLU 0.2 µg/mL) is 0.266 µg/mL; in data set [3] (AGP […], FLU 20 µg/mL) it was 20.745 µg/mL. Moreover, the “Unb Conc” value turned out to be 0.012 µg/mL in data set [2] (HSA 25 g/L, FLU 0.2 µg/mL); 1.182 µg/mL in data set [2] (HSA 25 g/L, FLU 20 µg/mL); 0.011 µg/mL in data set [2] (HSA 40 g/L, FLU 0.2 µg/mL); 0.966 µg/mL in data set [2] (HSA 40 g/L, FLU 20 µg/mL); 0.1019 µg/mL in data set [3] (AGP 0.9 g/L, FLU 0.2 µg/mL); 4.6563 µg/mL in data set [3] (AGP 0.9 g/L, FLU 20 µg/mL). For the same compound, the “Unb Conc” value in data set [3] (AGP […], FLU 0.2 µg/mL) is 0.0852 µg/mL; in data set [3] (AGP […], FLU 20 µg/mL), 4.2773 µg/mL. Further, the fraction unbound at 30 min in data set [2] (human) fell in the range of 0.0561 to 0.0602; in data set [4] (protein binding of FLU, spiked pooled plasma, 37 °C, 30 min, range over tested FLU concentrations), 0.0059 to 0.0098. The “binding to plasma proteins” value in data set [1] (healthy patients) is 95–97%. In data set [1] (patients with normal HSA (>42 g/L)), the typical unbound fraction is listed as 3–5%. Besides, in data set [1] (ref 13, 17, 38), the “bound to plasma proteins” value is “more than 95%”. Besides, the “protein binding of FLU in other studies” value in data set [1] (ref 36) is listed as 95%; in data set [1] (ref 38), 93%. The compound further had a fraction unbound at 30 min, 0.2 µg/mL in data set [4] (%Unbound, pooled plasma, FLU 0.2 µg/mL, alone) of 0.0066. In data set [4] (%Unbound, pooled plasma, FLU 20 µg/mL, alone), the fraction unbound at 30 min, 20 µg/mL was found to be 0.0059. For the same compound, the “%Unbound” value in data set [5] (FLU 0.2 µg/mL) was 0.7% and 0.78%; in data set [5] (FLU 20 µg/mL), 0.98% and 0.76% and 0.73%. Moreover, the “Measured Unbound Conc in Plasma” value in data set [5] (FLU 0.2 µg/mL) is 0.0016 µg/mL and 0.0023 µg/mL; in data set [5] (FLU 20 µg/mL), 0.1275 µg/mL and 0.21 µg/mL and 0.1766 µg/mL and 0.152 µg/mL. Moreover, the “Measured Total Conc in Plasma” value in data set [5] (FLU spiked 0.2 µg/mL) was 0.24 µg/mL and 0.23 µg/mL and 0.28 µg/mL; in data set [5] (FLU spiked 20 µg/mL), 21.76 µg/mL and 21.18 µg/mL and 23.09 µg/mL and 20.722 µg/mL.
In the case of `O=c1[nH]cc(F)c(=O)[nH]1` [5-FU, 5-fluorouracil], the protein binding in data set [1] (ref 63) was 8–12%.
